Data published in patent US9433621B2, “Substituted pyridine and pyrimidine derivatives and their use in treating viral infections” (Merck Sharp & Dohme Corp., priority 2010, dated 2016).

These molecules were tested on HCV replicon (assay: Cell-Based HCV Replicon Assay). Details: Hepatitis C virus; HCV Replicon assay, EC90 range, Table VI; read-out: EC90.
Procedure: Cell-Based HCV Replicon Assay
To measure cell-based anti-HCV activity of the compounds of the present invention, replicon cells were seeded at 5000 cells/well in 96-well collagen I-coated Nunc plates in the presence of the compound of the invention. Various concentrations of a compound of the invention, typically in 10 serial 2-fold dilutions, were added to the assay mixture, the starting concentration of the compound ranging from 25 μM to 1 μM. The final concentration of DMSO was 0.5%, fetal bovine serum was 10%, in the assay media. Cells were harvested on day 3 by the addition of 1× cell lysis buffer (Ambion cat #8721). The replicon RNA level was measured using real time PCR (Taqman assay). The amplicon was located in 5B. The PCR primers were: 5B.2F, ATGGACAGGCGCCCTGA; 5B.2R, […]; the probe sequence was FAM-labeled CACGCCATGCGCTGCGG. GAPDH RNA was used as endogenous control and was amplified in the same reaction as NS5B (multiplex PCR) using primers and VIC-labeled probe recommended by the manufacturer (PE Applied Biosystem). The real-time RT-PCR reactions were run on ABI PRISM® 7900HT Sequence Detection System using the following program: 48′C for 30 min, 95′C for 10 min, 40 cycles of 95′C for 15 sec, 60′C for 1 min. The ΔCT values (CT5B-CTGAPDH) were plotted against the concentration of test compound and fitted to the sigmoid dose-response model using Graph Pad PRISM® software. EC50 was defined as the concentration of inhibitor necessary to achieve ΔCT=1 over the projected baseline; EC90 the concentration necessary to achieve ΔCT=3.2 over the baseline. Alternatively, to quantitate the absolute amount of replicon RNA, a standard curve was established by including serially diluted T7 transcripts of replicon RNA in the Taqman assay. All Taqman reagents were from PE Applied Biosystems. Such an assay procedure was described in detail in e.g. Malcolm et al., Antimicrobial Agents and Chemotherapy 50: 1013-1020 (2006).
HCV Replicon assay data for compounds of the invention that were tested were obtained using the above method.

Compound | EC90 [nM]
Cc1cc(S(=O)(=O)C[C@H]2C[C@@H](Nc3nc(NCC(F)(F)F)nc(C)c3-c3nc4c(C)nccc4s3)[C@H](O)[C@@H]2O)ccc1F [Example 5009] | < 500
Cc1cc(S(=O)(=O)C[C@H]2C[C@@H](Nc3nc(NCC(C)(C)C)nc(C)c3-c3nc4c(C)nccc4s3)[C@H](O)[C@@H]2O)ccc1F [Example 5010] | < 500
COCCNc1nc(C)c(-c2nc3c(C)nccc3s2)c(N[C@@H]2C[C@H](CS(=O)(=O)c3ccc(F)c(C)c3)[C@@H](O)[C@H]2O)n1 [Example 5011] | < 500
CO[C@H](C)CNc1nc(C)c(-c2nc3c(C)nccc3s2)c(N[C@@H]2C[C@H](CS(=O)(=O)c3ccc(F)c(C)c3)[C@@H](O)[C@H]2O)n1 [Example 5012] | < 500
COc1ccc(S(=O)(=O)C[C@H]2C[C@@H](Nc3nc(NCC4CC4)nc(C)c3-c3nc4c(C)nccc4s3)[C@H](O)[C@@H]2O)cc1F [Example 5013] | < 500
COc1ccc(S(=O)(=O)C[C@H]2C[C@@H](Nc3nc(NCCSC(C)(C)C)nc(C)c3-c3nc4c(C)nccc4s3)[C@H](O)[C@@H]2O)cc1F [Example 5014] | < 500
C#CCCNc1nc(C)c(-c2nc3c(C4CC4)nccc3s2)c(N[C@@H]2C[C@H](CS(C)(=O)=O)[C@@H](O)[C@H]2O)n1 [Example 5015] | < 500
CCc1nccc2sc(-c3c(C)nc(NC4CC4)nc3N[C@@H]3C[C@H](CS(=O)(=O)c4ccc(F)c(C)c4)[C@@H](O)[C@H]3O)nc12 [Example 5016] | < 500
CCc1nccc2sc(-c3c(C)nc(NCC4CC4)nc3N[C@@H]3C[C@H](CS(=O)(=O)c4ccc(F)c(C)c4)[C@@H](O)[C@H]3O)nc12 [Example 5017] | < 500
CCc1nccc2sc(-c3c(C)nc(NCC(C)(C)C)nc3N[C@@H]3C[C@H](CS(=O)(=O)c4ccc(F)c(C)c4)[C@@H](O)[C@H]3O)nc12 [Example 5018] | < 500
CCc1nccc2sc(-c3c(C)nc(NCC(F)(F)F)nc3N[C@@H]3C[C@H](CS(=O)(=O)c4ccc(F)c(C)c4)[C@@H](O)[C@H]3O)nc12 [Example 5019] | < 500
Cc1cc(S(=O)(=O)C[C@H]2C[C@@H](Nc3nc(N)nc(C)c3-c3nc4c(C)nccc4s3)[C@H](O)[C@@H]2O)ccc1F [Example 5020] | < 500
CCc1nccc2sc(-c3c(C)nc(N)nc3N[C@@H]3C[C@H](CS(=O)(=O)c4ccc(F)c(C)c4)[C@@H](O)[C@H]3O)nc12 [Example 5021] | < 500
CCNC(=O)N[C@H]1C[C@@H](Nc2nc(N[C@H](C)C3CC3)nc(C)c2-c2nc3c(C4CC4)nccc3s2)[C@H](O)[C@@H]1O [Example 5022] | < 500
Cc1nc(N[C@H](C)C2CC2)nc(N[C@@H]2C[C@H](NC(=O)NCc3ccc(F)cc3)[C@@H](O)[C@H]2O)c1-c1nc2c(C3CC3)nccc2s1 [Example 5023] | < 500
CCNC(=S)N[C@H]1C[C@@H](Nc2nc(N[C@H](C)C3CC3)nc(C)c2-c2nc3c(C4CC4)nccc3s2)[C@H](O)[C@@H]1O [Example 5024] | < 500
CNS(=O)(=O)C[C@H]1C[C@@H](Nc2nc(NCC3CC3)nc(C)c2-c2nc3c(C)nccc3s2)[C@H](O)[C@@H]1O [Example 5025] | < 500
CNS(=O)(=O)C[C@H]1C[C@@H](Nc2nc(NCC3CC3)nc(C)c2-c2nc3c(C)nc(C)cc3s2)[C@H](O)[C@@H]1O [Example 5026] | < 500
CNS(=O)(=O)C[C@H]1C[C@@H](Nc2nc(NC3CC3)nc(C)c2-c2nc3c(C)nc(C)cc3s2)[C@H](O)[C@@H]1O [Example 5027] | < 500
Cc1nc(N[C@H](C)c2c(F)c(F)c(C)c(F)c2F)nc(N[C@@H]2C[C@H](C(C)(C)O)[C@@H](O)[C@H]2O)c1-c1nc2c(N)nccc2s1 [Example 5028] | < 500
Cc1nc(N)nc(N[C@@H]2C[C@H](C(C)(C)O)[C@@H](O)[C@H]2O)c1-c1nc2c(N)nccc2s1 [Example 5029] | < 500
Cc1nc(NC2(C(C)C)CC2)nc(N[C@@H]2C[C@H](C(C)(C)O)[C@@H](O)[C@H]2O)c1-c1nc2c(C)nccc2s1 [Example 5030] | 500 to 5000
Cc1nc(NC2(CC(C)C)CC2)nc(N[C@@H]2C[C@H](C(C)(C)O)[C@@H](O)[C@H]2O)c1-c1nc2c(C)nccc2s1 [Example 5031] | 500 to 5000
Cc1nc(NC2COC3(CCCCC3)C2)nc(N[C@@H]2C[C@H](C(C)(C)O)[C@@H](O)[C@H]2O)c1-c1nc2c(C)nccc2s1 (stereo partly drawn) [Example 5032] | < 500

Compound | EC90 [nM]
CO[C@H](C)CNc1nc(C)c(-c2nc3c(C)nccc3s2)c(N[C@@H]2C[C@H](COc3c(F)ccc(F)c3F)[C@@H](O)[C@H]2O)n1 [Example 5033] | < 500
CO[C@H](C)CNc1nc(C)c(-c2nc3c(C)nccc3s2)c(N[C@@H]2C[C@H](COc3cc(F)c(F)cc3F)[C@@H](O)[C@H]2O)n1 [Example 5034] | < 500
Cc1nc(NCC(F)(F)C(F)(F)F)nc(N[C@@H]2C[C@H](C(C)(C)O)[C@@H](O)[C@H]2O)c1-c1nc2c(N)nccc2s1 [Example 5035] | < 500
COCCNc1nc(C)c(-c2nc3c(C)nccc3s2)c(N[C@@H]2C[C@H](C(C)(C)NS(C)(=O)=O)[C@@H](O)[C@H]2O)n1 [Example 5036] | < 500
COC[C@@H](C)Nc1nc(C)c(-c2nc3c(C)nccc3s2)c(N[C@@H]2C[C@H](C(C)(C)NS(C)(=O)=O)[C@@H](O)[C@H]2O)n1 [Example 5037] | < 500
CO[C@H](C)CNc1nc(C)c(-c2nc3c(C)nccc3s2)c(N[C@@H]2C[C@H](C(C)(C)NS(C)(=O)=O)[C@@H](O)[C@H]2O)n1 [Example 5038] | < 500
Cc1nc(NCCSC(C)(C)C)nc(N[C@@H]2C[C@H](C(C)(C)NS(C)(=O)=O)[C@@H](O)[C@H]2O)c1-c1nc2c(C)nccc2s1 [Example 5039] | < 500
COC[C@@H](C)Nc1nc(C)c(-c2nc3c(C)nccc3s2)c(N[C@@H]2C[C@H](C(C)(C)NC(=O)OC)[C@@H](O)[C@H]2O)n1 [Example 5040] | < 500
COC(=O)NC(C)(C)[C@H]1C[C@@H](Nc2nc(NC[C@@H](C)OC)nc(C)c2-c2nc3c(C)nccc3s2)[C@H](O)[C@@H]1O [Example 5041] | < 500
COCCNc1nc(C)c(-c2nc3c(C)nccc3s2)c(N[C@@H]2C[C@H](C(C)(C)NC(=O)OC)[C@@H](O)[C@H]2O)n1 [Example 5042] | < 500
Cc1nc(NCC2CC2)nc(N[C@@H]2C[C@H](C(C)(C)NS(C)(=O)=O)[C@@H](O)[C@H]2O)c1-c1nc2c(C)nccc2s1 [Example 5044] | < 500
Cc1nc(NCC(C)(C)C)nc(N[C@@H]2C[C@H](C(C)(C)NS(C)(=O)=O)[C@@H](O)[C@H]2O)c1-c1nc2c(C)nccc2s1 [Example 5045] | < 500
COC(=O)NC(C)(C)[C@H]1C[C@@H](Nc2nc(NCC3CC3)nc(C)c2-c2nc3c(C)nccc3s2)[C@H](O)[C@@H]1O [Example 5046] | < 500
COC(=O)NC(C)(C)[C@H]1C[C@@H](Nc2nc(NCC(C)(C)C)nc(C)c2-c2nc3c(C)nccc3s2)[C@H](O)[C@@H]1O [Example 5047] | < 500
Cc1nc(NC2CC2)nc(N[C@@H]2C[C@H](C(C)(C)NS(C)(=O)=O)[C@@H](O)[C@H]2O)c1-c1nc2c(C)nccc2s1 [Example 5048] | < 500
Cc1nc(NC2CCC2)nc(N[C@@H]2C[C@H](C(C)(C)NS(C)(=O)=O)[C@@H](O)[C@H]2O)c1-c1nc2c(C)nccc2s1 [Example 5049] | < 500
COC(=O)NC(C)(C)[C@H]1C[C@@H](Nc2nc(NC3CC3)nc(C)c2-c2nc3c(C)nccc3s2)[C@H](O)[C@@H]1O [Example 5050] | < 500
Cc1nc(NCC2CC2)nc(N[C@@H]2C[C@H](C(C)(C)N=[N+]=[N-])[C@@H](O)[C@H]2O)c1-c1nc2c(C3CC3)nccc2s1 [Example 5051] | < 500
CCS(=O)(=O)C(C)(C)[C@H]1C[C@@H](Nc2nc(NCC3CC3)nc(C)c2-c2nc3c(C)nccc3s2)[C@H](O)[C@@H]1O [Example 5057] | < 500
CCS(=O)(=O)C(C)(C)[C@H]1C[C@@H](Nc2nc(NC3CCC3)nc(C)c2-c2nc3c(C)nccc3s2)[C@H](O)[C@@H]1O [Example 5058] | < 500
CCS(=O)(=O)C(C)(C)[C@H]1C[C@@H](Nc2nc(NCC3CC3)nc(C)c2-c2nc3c(C4CC4)nccc3s2)[C@H](O)[C@@H]1O [Example 5059] | < 500
CCS(=O)(=O)C(C)(C)[C@H]1C[C@@H](Nc2nc(NC3CCC3)nc(C)c2-c2nc3c(C4CC4)nccc3s2)[C@H](O)[C@@H]1O [Example 5060] | < 500
CCS(=O)(=O)C(C)(C)[C@H]1C[C@@H](Nc2nc(NCc3c(F)cc(F)cc3F)nc(C)c2-c2nc3c(C4CC4)nccc3s2)[C@H](O)[C@@H]1O [Example 5061] | < 500
Cc1nc(NC2CCC2)nc(N[C@@H]2C[C@H](C(C)(C)S(C)(=O)=O)[C@@H](O)[C@H]2O)c1-c1nc2c(C)nccc2s1 [Example 5062] | < 500
